Assays:
Assay in all cases: TMT LC-MSMS of 11-labelled proteins
[1] = system: immunoglobulin gamma-1 heavy chain; assay type: cell-based, Homo sapiens
Source text: (§1) Supplement 41467_2018_4343_MOESM4_ESM.xlsx, sheet "Exp3" | column: Abundance Ratio: (11) / (11 with PU-H71); Abundance Ratio: (11) / (DMSO); Abundances (Grouped): 11; Abundances (Grouped): 11 with PU-H71

[2] = target: protein MAL2 (MAL2) (Homo sapiens, UniProt Q969L2); assay type: cell-based; on Abundance Ratio: (11) / (11 with PU-H71): test concentration or dose not given here
Source text: as §1

[3] = target: T1, Monocarboxylate transporter 4 (SLC16A3) (Homo sapiens, UniProt O15427); assay type: cell-based; on Abundance Ratio: (11) / (11 with PU-H71): test concentration or dose not given here; on Abundance Ratio: (11) / (DMSO): test concentration or dose not given here
T1 sequence (O15427 1-465): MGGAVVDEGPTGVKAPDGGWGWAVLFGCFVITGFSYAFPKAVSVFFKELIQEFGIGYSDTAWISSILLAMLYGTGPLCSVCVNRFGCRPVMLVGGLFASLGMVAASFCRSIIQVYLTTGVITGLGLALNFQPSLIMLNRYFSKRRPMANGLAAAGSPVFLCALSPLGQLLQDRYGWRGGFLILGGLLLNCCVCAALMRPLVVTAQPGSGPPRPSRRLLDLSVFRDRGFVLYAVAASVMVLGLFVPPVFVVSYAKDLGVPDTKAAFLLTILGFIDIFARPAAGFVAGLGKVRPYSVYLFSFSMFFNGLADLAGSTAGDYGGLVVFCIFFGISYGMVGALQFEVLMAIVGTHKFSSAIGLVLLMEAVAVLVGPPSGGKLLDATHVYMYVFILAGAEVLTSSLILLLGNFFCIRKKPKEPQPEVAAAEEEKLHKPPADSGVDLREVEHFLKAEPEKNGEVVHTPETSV
Source text: as §1

[4] = target: Dolichyl-diphosphooligosaccharide--protein glycosyltransferase subunit 1 (RPN1) (Homo sapiens, UniProt P04843); assay type: cell-based
Source text: as §1

[5] = target: T2, Peroxiredoxin-4 (PRDX4) (Homo sapiens, UniProt Q13162); assay type: cell-based
T2 sequence (Q13162 38-271): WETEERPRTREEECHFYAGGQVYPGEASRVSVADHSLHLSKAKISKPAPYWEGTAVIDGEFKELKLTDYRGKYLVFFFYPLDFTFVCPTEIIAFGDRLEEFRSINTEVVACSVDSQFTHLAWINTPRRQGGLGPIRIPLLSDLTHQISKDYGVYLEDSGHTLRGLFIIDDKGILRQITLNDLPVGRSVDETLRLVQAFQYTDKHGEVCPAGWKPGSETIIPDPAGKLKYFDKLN
Source text: as §1

[6] = system: immunoglobulin gamma-1 heavy chain; assay type: cell-based, Homo sapiens; remark: listed apart in the source
Source text: Supplement 41467_2018_4343_MOESM4_ESM.xlsx, sheet "Exp2" | column: Abundance Ratio: (11) / (11 with PU-H71); Abundance Ratio: (11) / (DMSO); Abundances (Grouped): 11; Abundances (Grouped): 11 with PU-H71

Sequence of protein MAL2 (MAL2) (Q969L2 whole entry): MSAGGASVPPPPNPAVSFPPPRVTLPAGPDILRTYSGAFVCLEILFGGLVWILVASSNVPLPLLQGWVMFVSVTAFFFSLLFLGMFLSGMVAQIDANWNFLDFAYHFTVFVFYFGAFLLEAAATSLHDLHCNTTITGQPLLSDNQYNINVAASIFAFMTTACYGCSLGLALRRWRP
Sequence of Dolichyl-diphosphooligosaccharide--protein glycosyltransferase subunit 1 (RPN1) (P04843 24-607): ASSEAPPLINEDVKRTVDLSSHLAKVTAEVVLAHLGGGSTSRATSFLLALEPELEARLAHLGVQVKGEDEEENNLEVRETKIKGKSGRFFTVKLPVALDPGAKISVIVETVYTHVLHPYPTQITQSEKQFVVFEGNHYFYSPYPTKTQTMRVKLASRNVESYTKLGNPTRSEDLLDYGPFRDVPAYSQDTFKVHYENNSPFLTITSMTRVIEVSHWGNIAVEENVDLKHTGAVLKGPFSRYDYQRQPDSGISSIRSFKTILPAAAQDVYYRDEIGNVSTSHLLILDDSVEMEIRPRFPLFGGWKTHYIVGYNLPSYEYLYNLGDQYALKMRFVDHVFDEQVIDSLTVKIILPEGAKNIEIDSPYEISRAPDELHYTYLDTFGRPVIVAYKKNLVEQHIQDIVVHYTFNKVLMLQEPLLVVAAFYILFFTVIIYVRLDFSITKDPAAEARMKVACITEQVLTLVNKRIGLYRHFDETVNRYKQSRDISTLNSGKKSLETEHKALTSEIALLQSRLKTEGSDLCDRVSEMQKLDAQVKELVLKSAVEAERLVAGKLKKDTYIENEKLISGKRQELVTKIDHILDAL
Sequence of Dolichyl-diphosphooligosaccharide--protein glycosyltransferase subunit 1 (RPN1) (P39656 43-456 partner): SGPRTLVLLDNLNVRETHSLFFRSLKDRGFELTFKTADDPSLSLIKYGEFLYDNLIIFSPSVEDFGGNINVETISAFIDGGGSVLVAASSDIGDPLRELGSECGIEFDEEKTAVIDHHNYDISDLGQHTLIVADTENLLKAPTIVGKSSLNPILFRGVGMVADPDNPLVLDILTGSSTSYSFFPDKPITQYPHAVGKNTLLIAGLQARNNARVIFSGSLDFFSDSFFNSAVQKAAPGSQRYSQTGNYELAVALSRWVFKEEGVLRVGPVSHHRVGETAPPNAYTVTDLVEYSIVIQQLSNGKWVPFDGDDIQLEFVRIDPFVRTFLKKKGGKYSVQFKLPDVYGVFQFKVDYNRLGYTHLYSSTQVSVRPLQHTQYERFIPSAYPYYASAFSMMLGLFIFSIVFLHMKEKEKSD
Sequence of Dolichyl-diphosphooligosaccharide--protein glycosyltransferase subunit 1 (RPN1) (P04844 23-631 partner): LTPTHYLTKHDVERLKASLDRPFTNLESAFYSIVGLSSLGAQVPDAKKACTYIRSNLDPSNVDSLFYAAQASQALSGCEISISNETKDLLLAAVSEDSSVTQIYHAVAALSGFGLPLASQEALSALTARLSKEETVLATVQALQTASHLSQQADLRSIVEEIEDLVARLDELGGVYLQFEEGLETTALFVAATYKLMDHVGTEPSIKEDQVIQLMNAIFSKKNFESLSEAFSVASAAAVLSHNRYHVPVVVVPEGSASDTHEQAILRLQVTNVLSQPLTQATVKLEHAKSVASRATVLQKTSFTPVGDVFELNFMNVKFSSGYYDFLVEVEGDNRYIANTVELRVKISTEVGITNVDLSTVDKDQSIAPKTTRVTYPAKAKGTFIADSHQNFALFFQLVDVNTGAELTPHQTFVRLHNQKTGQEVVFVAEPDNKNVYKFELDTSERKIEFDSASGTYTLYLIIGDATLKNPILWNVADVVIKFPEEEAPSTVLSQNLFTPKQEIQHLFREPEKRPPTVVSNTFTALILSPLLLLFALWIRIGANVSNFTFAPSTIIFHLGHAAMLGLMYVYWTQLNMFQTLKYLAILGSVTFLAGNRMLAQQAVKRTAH
Sequence of Dolichyl-diphosphooligosaccharide--protein glycosyltransferase subunit 1 (RPN1) (P61803 whole entry partner): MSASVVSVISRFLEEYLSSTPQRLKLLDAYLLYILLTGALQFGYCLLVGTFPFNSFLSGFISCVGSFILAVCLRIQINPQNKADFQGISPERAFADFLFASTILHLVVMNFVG
Sequence of Dolichyl-diphosphooligosaccharide--protein glycosyltransferase subunit 1 (RPN1) (P61165 whole entry partner): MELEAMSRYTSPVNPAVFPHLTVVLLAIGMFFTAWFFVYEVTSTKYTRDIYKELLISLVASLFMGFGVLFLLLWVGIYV
Sequence of Dolichyl-diphosphooligosaccharide--protein glycosyltransferase subunit 1 (RPN1) (P0C6T2 whole entry partner): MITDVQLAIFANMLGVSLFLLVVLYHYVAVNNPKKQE

Abundance Ratio: (11) / (11 with PU-H71) ([2]; Exp3): 0.751
Abundance Ratio: (11) / (DMSO) ([2]; Exp3): 5.099
Abundances (Grouped): 11 ([2]; Exp3): 71.9
Abundances (Grouped): 11 with PU-H71 ([2]; Exp3, with PU-H71): 95.8
Abundance Ratio: (11) / (11 with PU-H71) ([3]; Exp3): 0.921
Abundance Ratio: (11) / (DMSO) ([3]; Exp3): 12.228
Abundances (Grouped): 11 ([3]; Exp3): 353.4
Abundances (Grouped): 11 with PU-H71 ([3]; Exp3, with PU-H71): 383.7
Abundance Ratio: (11) / (11 with PU-H71) ([4]; Exp3): 0.849
Abundance Ratio: (11) / (DMSO) ([4]; Exp3): 2.221
Abundances (Grouped): 11 ([4]; Exp3): 38.2
Abundances (Grouped): 11 with PU-H71 ([4]; Exp3, with PU-H71): 45
Abundance Ratio: (11) / (11 with PU-H71) ([5]; Exp3): 0.973
Abundance Ratio: (11) / (DMSO) ([5]; Exp3): 2.612
Abundances (Grouped): 11 ([5]; Exp3): 25.6
Abundances (Grouped): 11 with PU-H71 ([5]; Exp3, with PU-H71): 26.3
Structure (SMILES): CC(=O)Oc1ccc2c(c1)Oc1cc(OC(C)=O)ccc1C21OC(=O)c2cc(C(=O)NCCOCCOCCNC(=O)CCCC(=O)N(CC#N)S(=O)(=O)c3ccc(C(=O)NCCCn4c(Sc5cc6c(cc5I)OCO6)nc5c(N)ncnc54)cc3)ccc21 [compound 11]
Abundance Ratio: (11) / (11 with PU-H71) ([1]; Exp3): 0.809
Abundance Ratio: (11) / (DMSO) ([1]; Exp3): 0.806
Abundances (Grouped): 11 ([1]; Exp3): 6402
Abundances (Grouped): 11 with PU-H71 ([1]; Exp3, with PU-H71): 7910.4
Abundance Ratio: (11) / (11 with PU-H71) ([6]; sheet Exp2): 0.821
Abundance Ratio: (11) / (DMSO) ([6]; sheet Exp2): 0.807
Abundances (Grouped): 11 ([6]; sheet Exp2): 7483.9
Abundances (Grouped): 11 with PU-H71 ([6]; sheet Exp2, with PU-H71): 9110.6

— publication PMC5951806, “Rapid labelling and covalent inhibition of intracellular native proteins using ligand-directed N-acyl-N-alkyl sulfonamide” (Nature Communications, 2018)
